These results are taken from ChEMBL document CHEMBL3997762 (Medchemcomm, 2016).

Data set [1] can be described thus: Drug uptake in human SGC7901 cells at 3 uM after 4 hrs by flow cytometry relative to control. Type of data set: ADME, cell-based. The conditions noted are these: sgc-7901, 4 h. (In general: A flow cytometer gives signals particle by particle.)
Data set [2] is described as follows: Drug uptake in human SGC7901 cells at 3 uM after 24 hrs by flow cytometry relative to control. The format is ADME, cell-based. The conditions noted are these: sgc-7901, 24 h.
A short description of data set [3]: Drug uptake in human SGC7901 cells at 5 uM after 4 hrs by flow cytometry relative to control. The format is ADME, cell-based. The conditions noted are these: sgc-7901, 4 h.
Data set [4] can be described thus: Drug uptake in human SGC7901 cells at 5 uM after 48 hrs by flow cytometry relative to control. Type of data set: ADME, cell-based. The conditions noted are these: sgc-7901, 48 h.
Data set [5] has as its system GES1. The experiment in a line: Cytotoxicity against human GES-1 cells assessed as effect on cell viability at 50 uM after 48 hrs by MTT assay relative to control. The conditions noted are these: ges1, 48 h. The format is cell-based. (Formazan colour is commonly taken as a measure of viable cells.)
Data set [6] can be described thus: Drug uptake in human SGC7901 cells at 5 uM after 24 hrs by MitoTracker Red CM-H2-XRos/Hoechst 33342 dye based confocal fluorescence microscopic analysis. The format is ADME, cell-based. The conditions noted are these: sgc-7901, 24 h.
Data set [7] concerns SGC-7901. Description: Cytotoxicity against human SGC7901 cells assessed as effect on cell viability at 50 uM after 48 hrs by MTT assay relative to control. Type of data set: functional.
Data set [8] is described as follows: Drug uptake in human SGC7901 cells at 5 uM after 24 hrs by flow cytometry relative to control. The conditions noted are these: sgc-7901, 24 h. Type of data set: ADME, cell-based.
The nature of data set [9]: Stability of the compound in PBS in presence of FBS by fluorescence assay. Type of data set: physicochemical. The conditions noted are these: cattle, buffer.
The nature of data set [10]: Stability of the compound in DMEM in presence of FBS by fluorescence assay.
Data set [11] has as its system SGC-7901. Description: Cytotoxicity against human SGC7901 cells assessed as effect on cell viability at 10 uM after 48 hrs by MTT assay relative to control. Type of data set: functional.
In data set [12] the test system is GES1. The experiment in a line: Cytotoxicity against human GES-1 cells assessed as effect on cell viability at 10 uM after 48 hrs by MTT assay relative to control. The format is cell-based. The conditions noted are these: ges1, 48 h.
The subject of data set [13] is SGC-7901. The experiment in a line: Cell cycle arrest in human SGC7901 cells assessed as accumulation at S phase at >20 uM after 24 hrs by propidium iodide staining based flow cytometry. Type of data set: functional.
Data set [14] has as its system GES1. Description: Cytotoxicity against human GES-1 cells assessed as effect on cell viability up to 100 uM after 48 to 72 hrs by MTT assay. Type of data set: cell-based.
Data set [15] has as its system SGC-7901. The experiment in a line: Induction of apoptosis in human SGC7901 cells after 48 hrs by Annexin V/[…] staining-based flow cytometric method. Type of data set: functional, cell-based.
In data set [16] the test system is SGC-7901. The experiment in a line: Cell cycle arrest in human SGC7901 cells assessed as accumulation at G1 phase at <20 uM after 24 hrs by propidium iodide staining based flow cytometry. The format is functional.
For data set [17], the system named is SGC-7901. Description: Induction of ROS production in human SGC7901 cells at 5 to 20 uM after 48 hrs by DHE dye based flow cytometry. Type of data set: functional, cell-based.
Data set [18] can be described thus: Drug localization in mitochondria of human MCF7 cells at 5 uM after 24 hrs by MitoTracker Red CM-H2-XRos/Hoechst 33342 dye based confocal fluorescence microscopic analysis. Type of data set: ADME.
Data set [19] deals with SGC-7901. The experiment in a line: Induction of apoptosis in human SGC7901 cells assessed as decrease in viable cells after 48 hrs by Annexin V/[…] staining-based flow cytometric method. Type of data set: functional, cell-based.
The subject of data set [20] is SGC-7901. The experiment in a line: Cell cycle arrest in human SGC7901 cells assessed as decrease in G1 phase at >20 uM after 24 hrs by propidium iodide staining based flow cytometry. Type of data set: functional.
The test system of data set [21] is SGC-7901. The experiment in a line: Induction of apoptosis in human SGC7901 cells assessed as decrease in nonapoptotic cells after 48 hrs by Annexin V/[…] staining-based flow cytometric method. Type of data set: functional, cell-based.
The test system of data set [22] is SGC-7901. The experiment in a line: Induction of ROS production in human SGC7901 cells at 5 to 10 uM after 48 hrs by MitoTracker Red CM-H2-XRos dye based flow cytometry. The format is functional, cell-based.
A short description of data set [23]: Stability of the compound in DMEM in presence of FBS up to 96 hrs by fluorescence assay.
A short description of data set [24]: Drug localization in mitochondria of human SGC7901 cells at 5 uM after 24 hrs by MitoTracker Red CM-H2-XRos/Hoechst 33342 dye based confocal fluorescence microscopic analysis. The format is ADME.
Data set [25] relates to SGC-7901. Description: Cytotoxicity against human SGC7901 cells assessed as decrease in cell viability pretreated for 4 hrs followed by DTT addition measured 48 to 72 hrs post dose by MTT assay. The format is functional, cell-based.

Calls of active or inactive are those of the source. No cut-off for these calls is given here.

Regarding `C[n+]1ccc(/C=C/c2c[nH]c3ccccc23)cc1.[I-]`, the Drug uptake in data set [1] is reported as 95.4%; in [2] it was 96.9%.
As to `O=c1[nH]c(=O)n(CCC[n+]2ccc(/C=C/c3c[nH]c4ccccc34)cc2)cc1F.[Br-]`, the Drug uptake in [3] is recorded as 78%; in data set [4] it was 62.6%; in data set [6], “Not Active”; in data set [8], 80.5%. Further, the “fold change (FC)” value came to 1.072 with GES1 [5] and 1.019 in the data set with SGC-7901 [7]. For the same compound, the Stability in data set [9] was 72 h; in [10], 48 h.
In the case of `O=C(Cn1cc(F)c(=O)[nH]c1=O)NCC[n+]1ccc(/C=C/c2c[nH]c3ccccc23)cc1.[Br-]`, the Drug uptake was 0.8% in [3], 1.6% in data set [4], “Not Active” in data set [6] and 1.4% in data set [8]. Besides, the “fold change (FC)” value in the data set with GES1 [5] is reported as 1.069; in the data set with SGC-7901 [7], 0.888; in the data set on SGC-7901 [11], 0.977; in the data set with GES1 [12] it was 1.055. Further, the Stability in data set [9] turned out to be 72 h; in data set [10] it was 48 h.
Consider `O=C(Cn1cc(F)c(=O)[nH]c1=O)OCC[n+]1ccc(/C=C/c2c[nH]c3ccccc23)cc1.[Br-]`, for which the Drug uptake is recorded as 96.5% in data set [3], 95.8% in data set [4], “Active” in data set [18] and 96.6% in data set [8]. Besides, the result with SGC-7901 [13], with SGC-7901 [16], in the data set with SGC-7901 [17], in the data set on SGC-7901 [20] and with SGC-7901 [22] was Active. The Activity entry is “Non-Toxic” with GES1 [14], “Dose-dependent effect” with SGC-7901 [15], “Dose-dependent effect” in the data set with SGC-7901 [19] and “Dose-dependent effect” with SGC-7901 [21]. The “fold change (FC)” value is reported as 0.561 in the data set on GES1 [5], 0.597 with SGC-7901 [7], 0.707 in the data set on SGC-7901 [11] and 0.822 in the data set on GES1 [12]. Besides, the Stability in [9] turned out to be 72 h; in [10], 48 h.
Take `O=c1[nH]cc(F)c(=O)[nH]1` [FLUOROURACIL]: the Activity entry in the data set with GES1 [14] is listed as “Toxic”. Besides, the “fold change (FC)” value amounted to 0.53 in the data set on GES1 [5], 0.6 in the data set with SGC-7901 [7], 0.986 with SGC-7901 [11] and 0.733 in the data set on GES1 [12].
With `O=c1[nH]c(=O)n(CCSSCC[n+]2ccc(/C=C/c3c[nH]c4ccccc34)cc2)cc1F.[Br-]`, the Drug uptake is recorded as 93.2% in data set [3], 99.6% in [4], “Active” in data set [24] and 98.8% in [8]. Also, the “fold change (FC)” value came out at 0.895 in the data set with GES1 [5], 1.021 in the data set on SGC-7901 [7], 1.108 in the data set on SGC-7901 [11] and 0.978 in the data set on GES1 [12]. Moreover, the Stability entry is “Stable” in data set [23] and 72 h in data set [9]. In the data set on SGC-7901 [25], the result was Active.
